In PubChem BioAssay AID248 (DTP/NCI, 2004):
Values joined by “and” are separate entries in the source; they are usually repeats but may differ in a detail not shown here. Equal entries are not always repeated. Toxic doses and inconclusive results are not listed. Cut-off read from the data, not from the text of the source: active = T/C of 150% or more; inactive = T/C below 125%.

System: L1210 leukemia ip in BDF1 mice, survival T/C
Assay: NCI In Vivo Anticancer Drug Screen. Data for tumor model L1210 Leukemia (intraperitoneal) in B6D2F1 (BDF1) mice
Settings: endpoint: mean survival time, higher = longer survival
Method in brief: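 Ratio derived from survival: compound-dosed mice over vehicle-dosed mice, all bearing a transplantable tumor.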

[1] = dose: 100.0 mg/kg/injection, schedule: Q01DX009 (ip), vehicle: Klucel (hydroxypropylcellulose) (HPC)
[2] = dose: 200.0 mg/kg/injection, schedule: Q01DX009 (ip), vehicle: Klucel (hydroxypropylcellulose) (HPC)
[3] = dose: 400.0 mg/kg/injection, schedule: Q01DX009 (ip), vehicle: Klucel (hydroxypropylcellulose) (HPC)
[4] = dose: 50.0 mg/kg/injection, schedule: Q01DX009 (ip), vehicle: saline
[5] = dose: 100.0 mg/kg/injection, schedule: Q01DX009 (ip), vehicle: saline
[6] = dose: 200.0 mg/kg/injection, schedule: Q01DX009 (ip), vehicle: saline
[7] = dose: 100.0 mg/kg/injection, schedule: Q01DX001 (ip), vehicle: saline
[8] = dose: 200.0 mg/kg/injection, schedule: Q01DX001 (ip), vehicle: saline
[9] = dose: 100.0 mg/kg/injection, schedule: Q04DX002 (ip), vehicle: saline with Tween-80
[10] = dose: 200.0 mg/kg/injection, schedule: Q04DX002 (ip), vehicle: saline with Tween-80
[11] = dose: 400.0 mg/kg/injection, schedule: Q04DX002 (ip), vehicle: saline with Tween-80
[12] = dose: 100.0 mg/kg/injection, schedule: Q04DX003 (ip), vehicle: other
[13] = dose: 200.0 mg/kg/injection, schedule: Q04DX003 (ip), vehicle: other
[14] = dose: 50.0 mg/kg/injection, schedule: Q01DX009 (ip), vehicle: Klucel (hydroxypropylcellulose) (HPC)
[15] = dose: 100.0 mg/kg/injection, schedule: Q04DX003 (ip), vehicle: Klucel (hydroxypropylcellulose) (HPC)
[16] = dose: 200.0 mg/kg/injection, schedule: Q04DX003 (ip), vehicle: Klucel (hydroxypropylcellulose) (HPC)
[17] = dose: 400.0 mg/kg/injection, schedule: Q04DX003 (ip), vehicle: Klucel (hydroxypropylcellulose) (HPC)
[18] = dose: 100.0 mg/kg/injection, schedule: Q04DX003 (ip), vehicle: saline
[19] = dose: 200.0 mg/kg/injection, schedule: Q04DX003 (ip), vehicle: saline
[20] = dose: 400.0 mg/kg/injection, schedule: Q04DX003 (ip), vehicle: saline
[21] = dose: 50.0 mg/kg/injection, schedule: Q01DX001 (ip), vehicle: carboxymethylcellulose (CMC)
[22] = dose: 100.0 mg/kg/injection, schedule: Q01DX001 (ip), vehicle: carboxymethylcellulose (CMC)
[23] = dose: 200.0 mg/kg/injection, schedule: Q01DX001 (ip), vehicle: carboxymethylcellulose (CMC)
[24] = dose: 400.0 mg/kg/injection, schedule: Q01DX001 (ip), vehicle: carboxymethylcellulose (CMC)

Measured: T/C

Cc1ccc(N=Cc2cc(Cl)ccc2O)cc1.Cc1ccc(N=Cc2cc(Cl)ccc2O)cc1.[Co]
inactive: dose: 25.0 mg/kg/injection, schedule: Q04DX003 (ip), vehicle: saline with Tween-80 94 % of control | dose: 100.0 mg/kg/injection, schedule: Q04DX003 (ip), vehicle: saline with Tween-80 116 % of control and 91 % of control

Nc1nnnn1-c1ccccc1-c1ccccc1
inactive: [1] 101 % of control | [2] 104 % of control | [3] 114 % of control

Cc1ccc(Br)c(Br)c1
inactive: [4] 97 % of control | [5] 87 % of control | [6] 111 % of control

NNC(=O)NC(=O)NN
inactive: dose: 9.61 mg/kg/injection, schedule: Q01DX Z (ip), vehicle: carboxymethylcellulose (CMC) 103 % of control | dose: 19.23 mg/kg/injection, schedule: Q01DX Z (ip), vehicle: carboxymethylcellulose (CMC) 90 % of control | dose: 38.45 mg/kg/injection, schedule: Q01DX Z (ip), vehicle: carboxymethylcellulose (CMC) 95 % of control | dose: 76.9 mg/kg/injection, schedule: Q01DX Z (ip), vehicle: carboxymethylcellulose (CMC) 116 % of control | [7] 103 % of control | [8] 108 % of control

CC1CN(C(C)(C)C)C1
inactive: dose: 100.0 mg/kg/injection, schedule: Q04DX003 (ip), vehicle: acetone 95 % of control

Cc1ccnc(NS(=O)(=O)c2ccc(N)cc2)n1
inactive: [9] 93 % of control | [10] 101 % of control | [11] 93 % of control

O=C(Nc1ccccc1)Nc1ccc([N+](=O)[O-])cc1
inactive: [1] 91 % of control | [12] 93 % of control | [2] 96 % of control | [13] 100 % of control | [3] 86 % of control | dose: 400.0 mg/kg/injection, schedule: Q04DX003 (ip), vehicle: other 100 % of control

Nc1nc(O)c(NC(=O)Nc2ccccc2)c(=O)[nH]1
inactive: dose: 100.0 mg/kg/injection, schedule: Q04DX003 (ip), vehicle: gum acacia 102 % of control | dose: 200.0 mg/kg/injection, schedule: Q04DX003 (ip), vehicle: gum acacia 100 % of control | dose: 400.0 mg/kg/injection, schedule: Q04DX003 (ip), vehicle: gum acacia 105 % of control

O=C(Nc1cccc(C(F)(F)F)c1)N1CCN(c2ccccc2)CC1
inactive: [1] 103 % of control | [2] 96 % of control | [3] 106 % of control

COc1ccc(CN(CCN(C)C)c2ccccn2)cc1
inactive: dose: 12.5 mg/kg/injection, schedule: Q01DX009 (ip), vehicle: Klucel (hydroxypropylcellulose) (HPC) 97 % of control | dose: 12.5 mg/kg/injection, schedule: Q04DX003 (ip), vehicle: Klucel (hydroxypropylcellulose) (HPC) 94 % of control | dose: 25.0 mg/kg/injection, schedule: Q01DX009 (ip), vehicle: Klucel (hydroxypropylcellulose) (HPC) 94 % of control | dose: 25.0 mg/kg/injection, schedule: Q04DX003 (ip), vehicle: Klucel (hydroxypropylcellulose) (HPC) 93 % of control | [14] 93 % of control | dose: 50.0 mg/kg/injection, schedule: Q04DX003 (ip), vehicle: Klucel (hydroxypropylcellulose) (HPC) 93 % of control and 94 % of control

O=C(NCCCCc1ccccc1)c1ccccc1
inactive: [1] 102 % of control | [15] 95 % of control | [2] 109 % of control | [16] 105 % of control | [3] 106 % of control | [17] 95 % of control

NC1=CCNC(=O)N1c1ccccc1
inactive: dose: 100.0 mg/kg/injection, schedule: Q01DX Z (ip), vehicle: methylcellulose (MC) 105 % of control

C[C@@H]1C[C@@]2(C)[C@@H](CC[C@@H]3[C@@H]2CC[C@]2(C)OC(=O)CC[C@@H]32)CC1=O
inactive: [14] 95 % of control | [1] 97 % of control | [12] 98 % of control | [2] 100 % of control | [13] 101 % of control

COc1ccc(C(O)C(C)C(O)(C(F)(F)F)C(F)(F)F)cc1 (centres undefined)
inactive: dose: 100.0 mg/kg/injection, schedule: Q01DX001 (ip), vehicle: Klucel (hydroxypropylcellulose) (HPC) 98 % of control | [15] 96 % of control | dose: 200.0 mg/kg/injection, schedule: Q01DX001 (ip), vehicle: Klucel (hydroxypropylcellulose) (HPC) 101 % of control | [16] 98 % of control | dose: 400.0 mg/kg/injection, schedule: Q01DX001 (ip), vehicle: Klucel (hydroxypropylcellulose) (HPC) 111 % of control | [17] 93 % of control

CCOc1ccc(/C=C/c2cc[n+](C)cc2)cc1OC
inactive: dose: 25.0 mg/kg/injection, schedule: Q01DX001 (ip), vehicle: saline with Tween-80 108 % of control | dose: 50.0 mg/kg/injection, schedule: Q01DX001 (ip), vehicle: saline with Tween-80 95 % of control | dose: 100.0 mg/kg/injection, schedule: Q01DX001 (ip), vehicle: saline with Tween-80 93 % of control

CCCCCCCCCCCCCCCC[As]1c2ccccc2Nc2ccccc21
inactive: [9] 86 % of control | [10] 89 % of control | [11] 86 % of control

Nc1ccc(-c2nc3nc(N)nc(N)c3nc2-c2ccc(N)cc2)cc1
inactive: dose: 30.0 mg/kg/injection, schedule: Q01DX Z (ip), vehicle: carboxymethylcellulose (CMC) 102 % of control | dose: 60.0 mg/kg/injection, schedule: Q01DX Z (ip), vehicle: carboxymethylcellulose (CMC) 95 % of control | dose: 120.0 mg/kg/injection, schedule: Q01DX Z (ip), vehicle: carboxymethylcellulose (CMC) 104 % of control | dose: 240.0 mg/kg/injection, schedule: Q01DX Z (ip), vehicle: carboxymethylcellulose (CMC) 101 % of control

Cc1cc(-c2ccc([N+](=O)[O-])cc2)cn1-c1ccccc1
inactive: dose: 50.0 mg/kg/injection, schedule: Q04DX002 (ip), vehicle: saline with Tween-80 97 % of control | [9] 97 % of control and 89 % of control | [10] 87 % of control | [11] 96 % of control

O=[N+]([O-])c1cccc(/C=C\C=C\c2ccccc2)c1
inactive: dose: 50.0 mg/kg/injection, schedule: Q01DX001 (ip), vehicle: saline 100 % of control | [7] 103 % of control | [8] 103 % of control | dose: 400.0 mg/kg/injection, schedule: Q01DX001 (ip), vehicle: saline 94 % of control

O=C1NC(c2ccccc2)(c2ccccc2)C(=O)N1CCCl
inactive: dose: 100.0 mg/kg/injection, schedule: Q01DX009 (ip), vehicle: acetone 102 % of control | [18] 101 % of control | dose: 200.0 mg/kg/injection, schedule: Q01DX009 (ip), vehicle: acetone 101 % of control | [19] 95 % of control | dose: 400.0 mg/kg/injection, schedule: Q01DX009 (ip), vehicle: acetone 104 % of control | [20] 110 % of control

O=C1/C(=C/c2ccccc2[N+](=O)[O-])Cc2ccccc21
inactive: [14] 107 % of control | [1] 94 % of control | [2] 93 % of control

COc1cc(OC)cc(C(=O)NCCCl)c1
inactive: [21] 101 % of control | [22] 110 % of control | [23] 107 % of control | [24] 107 % of control

NC(N)=Nc1ccc(S(=O)(=O)O)cc1
inactive: [18] 103 % of control | [19] 105 % of control | [20] 103 % of control

Cc1ccc(NC(=O)NCCCCl)cc1
inactive: [21] 98 % of control | [22] 110 % of control | [23] 98 % of control | [24] 106 % of control

O=C1c2ccccc2CCC12OC2c1ccc(F)cc1 (centres undefined)
inactive: [15] 97 % of control | [16] 97 % of control | [17] 103 % of control

CCOP(=O)(OCC)N(C(=O)O)C1CCCCC1
inactive: [4] 96 % of control | [5] 109 % of control | [6] 108 % of control | dose: 400.0 mg/kg/injection, schedule: Q01DX009 (ip), vehicle: saline 105 % of control
